Converted amounts (≈) assume the structure as drawn.
How the values were obtained:
[1] = target: T1, Glucose-dependent insulinotropic receptor (Homo sapiens, UniProt Q8TDV5); assay: Agonist activity at human GPR119 receptor expressed in CHO-K1 cells co-transfected with 6CRE-Luc after 5 hrs by luciferase reporter gene assay; assay type: functional, cell-based
T1 sequence (Q8TDV5 whole entry): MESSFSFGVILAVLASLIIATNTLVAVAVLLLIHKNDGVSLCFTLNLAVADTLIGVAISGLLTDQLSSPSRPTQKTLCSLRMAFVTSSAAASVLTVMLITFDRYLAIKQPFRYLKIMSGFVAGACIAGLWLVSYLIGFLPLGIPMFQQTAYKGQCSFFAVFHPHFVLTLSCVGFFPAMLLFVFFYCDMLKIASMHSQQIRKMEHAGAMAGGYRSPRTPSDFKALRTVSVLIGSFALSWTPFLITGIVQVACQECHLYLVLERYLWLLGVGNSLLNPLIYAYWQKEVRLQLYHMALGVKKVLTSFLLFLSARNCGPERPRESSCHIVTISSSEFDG

[2] = target: T2, Glucose-dependent insulinotropic receptor (Homo sapiens) (UniProt Q8TDV5); assay: Agonist activity at human GPR119 receptor expressed in CHO-K1 cells co-transfected with 6CRE-Luc after 5 hrs by luciferase reporter gene assay relative to N-(4-(1H-1,2,4-triazol-1-yl)phenyl)-5-nitro-6-(4-(pyridin-2-ylthio)piperidin-1-yl)pyrimidin-4-amine maximal response; assay type: functional, cell-based
T2 sequence (whole entry): T1 sequence (Q8TDV5 whole entry)

[3] = AUC (0 to 24) in mouse at 30 mg/kg, po; assay type: ADME, organism-based; design: time < 24 hr, dose 30 mg/kg, route oral; settings: plasma
[4] = Volume of distribution at steady state in mouse at 3 mg/kg, iv; assay type: ADME, organism-based; design: dose 3 mg/kg, route intravenous; settings: in vivo, read-out: Vdss
[5] = Tmax in mouse at 30 mg/kg, po; assay type: ADME, organism-based; design: dose 30 mg/kg, route oral; settings: in vivo
[6] = Solubility in fasted simulated intestinal fluid at pH 6.5; assay type: physicochemical
[7] = Half life in mouse at 30 mg/kg, po; assay type: ADME, organism-based; design: dose 30 mg/kg, route oral; settings: in vivo
[8] = Cmax in mouse at 3 mg/kg, iv; assay type: ADME, organism-based; design: dose 3 mg/kg, route intravenous; settings: in vivo
Mus musculus = assay: Clearance in mouse at 3 mg/kg, iv; assay type: ADME, organism-based; design: dose 3 mg/kg, route intravenous; settings: in vivo
[9] = AUC (0 to 24) in mouse at 3 mg/kg, iv; assay type: ADME, organism-based; design: time < 24 hr, dose 3 mg/kg, route intravenous; settings: plasma
[10] = Half life in mouse at 3 mg/kg, iv; assay type: ADME, organism-based; design: dose 3 mg/kg, route intravenous; settings: in vivo
[11] = Oral bioavailability in mouse at 30 mg/kg; assay type: ADME, organism-based; settings: in vivo
[12] = Tmax in mouse at 3 mg/kg, iv; assay type: ADME, organism-based; design: dose 3 mg/kg, route intravenous; settings: in vivo
[13] = Membrane permeability by PAMPA method; assay type: ADME; settings: read-out: permeability
[14] = Cmax in mouse at 30 mg/kg, po; assay type: ADME, organism-based; design: dose 30 mg/kg, route oral; settings: in vivo
[15] = target: T1, Glucose-dependent insulinotropic receptor; assay: Agonist activity at human GPR119 receptor by cAMP mobilization assay; assay type: functional

Row | Compound | EC50 [1] | Activity [2] | other results
1 | CCCS(=O)(=O)N1CCN(c2ccc(OCC3CCN(C(=O)CC(C)(C)C)CC3)cn2)CC1 | 2800 nM | 175% | 
2 | CCCS(=O)(=O)N1CCN(c2ccc(OCC3CCN(C(=O)N4CCOCC4)CC3)cn2)CC1 | > 10000 nM | 41% | 
3 | CCCS(=O)(=O)N1CCN(c2ccc(OCC3CCN(C(=O)NC(C)(C)C)CC3)cn2)CC1 | 800 nM | 75% | 
4 | COCCN1CCN(c2ccc(OCC3CCN(C(=O)OC(C)C)CC3)cn2)CC1 | 2600 nM | 28% | 
5 | CC(C)NC(=O)CN1CCN(c2ccc(OCC3CCN(C(=O)OC(C)C)CC3)cn2)CC1 | > 10000 nM | 11% | 
6 | CCCS(=O)(=O)N1CCN(c2ccc(OCC3CCN(C(=O)NC4CCCCC4)CC3)cn2)CC1 | > 10000 nM | 16% | 
7 | CCCS(=O)(=O)N1CCN(c2ccc(OCC3CCN(C(=O)NC(C)C)CC3)cn2)CC1 | 1000 nM | 45% | 
8 | CCCS(=O)(=O)N1CCN(c2ccc(OCC3CCN(C(=O)Nc4ccc(C(C)C)cc4)CC3)cn2)CC1 | 900 nM | 67% | 
9 | CC(C)OC(=O)N1CCC(COc2ccc(N3CCN(C(=O)N(C)C)CC3)nc2)CC1 | > 10000 nM | 23% | 
10 | CC(=O)N1CCN(c2ccc(OCC3CCN(C(=O)OC(C)C)CC3)cn2)CC1 | > 10000 nM | < 10% | 
11 | O=[N+]([O-])c1c(Nc2ccc(-n3cncn3)cc2)ncnc1N1CCC(Sc2ccccn2)CC1 |  |  | EC50 [15]: 130 nM
12 | CCCS(=O)(=O)N1CCN(c2ccc(OCC3CCN(C(=O)CC(C)C)CC3)cn2)CC1 | 1600 nM | 186% | 
13 | CCCS(=O)(=O)N1CCN(c2ccc(OCC3CCN(C(=O)C(F)F)CC3)cn2)CC1 | 2100 nM | 97% | 
14 | CC(C)OC(=O)N1CCC(COc2ccc(N3CCN(S(=O)(=O)c4cccnc4)CC3)nc2)CC1 | 2000 nM | 100% | 
15 | CC(C)OC(=O)N1CCC(COc2ccc(N3CCN(C(=O)c4ccco4)CC3)nc2)CC1 | 1900 nM | 112% | 
16 | CC(C)OC(=O)N1CCC(COc2ccc(N3CCN(S(=O)(=O)CC4CCCCC4)CC3)nc2)CC1 | 90 nM | 136% | 
17 | CCCS(=O)(=O)N1CCN(c2ccc(OCC3CCN(C(=O)c4ccco4)CC3)cn2)CC1 | 2000 nM | 112% | 
18 | CC(C)OC(=O)N1CCC(COc2ccc(N3CCN(S(=O)(=O)C4CCCCC4)CC3)nc2)CC1 | 200 nM | 165% | 

More lines, main results first:

Row | EC50 [1] | Activity [2] | Compound | other results
19 | 1300 nM | 167% | CCS(=O)(=O)N1CCN(c2ccc(OCC3CCN(C(=O)OC(C)C)CC3)cn2)CC1 | 
20 | 300 nM | 153% | CCCS(=O)(=O)N1CCN(c2ccc(OCC3CCN(C(=O)OC(C)C)CC3)cn2)CC1 | AUC at 24 h [3]: 2350 ng·h/mL; Vd [4]: 0.76 L/kg; Tmax [5]: 15 min; solubility [6]: 3.41 µg/mL (≈ 7.28 µM); half-life [7]: 24 min; Cmax [8]: 3080 ng/mL; clearance (Mus musculus): 15.7 mL/min/kg; AUC at 24 h [9]: 3130 ng·h/mL; half-life [10]: 37.2 min; bioavailability [11]: 8%; Tmax [12]: 45 min; Papp [13]: 47 ×10⁻⁶ cm/s; Cmax [14]: 3000 ng/mL
21 | 300 nM | 171% | CC(C)OC(=O)N1CCC(COc2ccc(N3CCN(S(=O)(=O)C(C)C)CC3)nc2)CC1 | 
22 | 1200 nM | 125% | CCN(CC)S(=O)(=O)N1CCN(c2ccc(OCC3CCN(C(=O)OC(C)C)CC3)cn2)CC1 | 
23 | 2100 nM | 93% | CCS(=O)(=O)N1CCN(c2ccc(OC3CCN(C(=O)OC(C)C)CC3)cn2)CC1 | 
24 | 1800 nM | 69% | CC(C)OC(=O)N1CCC(COc2ccc(N3CCN(S(=O)(=O)c4cccs4)CC3)nc2)CC1 | 
25 | 1200 nM | 69% | CCS(=O)(=O)N1CCN(c2ccc(OCCC3CCN(C(=O)OC(C)C)CC3)cn2)CC1 | 
26 | 700 nM | 95% | CCCS(=O)(=O)N1CCN(c2ccc(OCCC3CCN(C(=O)OC(C)C)CC3)cn2)CC1 | 
27 | 100 nM | 164% | CCCCS(=O)(=O)N1CCN(c2ccc(OCC3CCN(C(=O)OC(C)C)CC3)cn2)CC1 | 
28 | 300 nM | 178% | COCCS(=O)(=O)N1CCN(c2ccc(OCC3CCN(C(=O)OC(C)C)CC3)cn2)CC1 | 
29 | 1000 nM | 118% | CC(C)OC(=O)N1CCC(COc2ccc(N3CCN(S(=O)(=O)N4CCCCC4)CC3)nc2)CC1 | 

Source: ChEMBL document CHEMBL1156968, “2,5-Disubstituted pyridines as potent GPR119 agonists” (Bioorg Med Chem Lett, 2010)
